What was measured:
VHL [1] = molecular target: T1, VHL (Homo sapiens, UniProt P40337); assay: VHL nanoBRET (+ Digitonin); type: cell-based
T1 construct: expressed in transfected cells
Procedure: (§1) The VHL NanoBRET™ Target Engagement Assay analyzes the apparent affinity of test compounds for VHL in cells by competitive displacement of a VHL NanoBRET™ tracer reversibly bound to a NanoLuc® VHL fusion protein stably expressed in the cells.
(§2) 50 nL of control compound (10 mM; parental unlabeled VHL antagonist; see structure below) and 50 nL of DMSO (negative control) were dispensed into the appropriate control wells. DMSO was backfilled to a final volume of 50 nL as required. […] Max Signal control wells consisted of DMSO only treated wells. Minimum Signal control wells contained of 10 uM parental unlabeled VHL antagonist (control compound—see structure below). […] Background Signal control wells were prepared without tracer for background correction steps.
(§3) The raw BRET ratio values were calculated by dividing the acceptor emission value (610 nm) by the donor emission value (460 nm) for each sample. To correct for background, the BRET ratio in the absence of tracer (average of no-tracer control samples) was subtracted from the BRET ratio of each sample. Raw BRET units were converted to milliBRET units (mBU) by multiplying each raw BRET value by 1,000. The normalized NanoBRET™ signal was calculated relative to the Max Signal control wells (DMSO treated control wells) and the Minimum Signal control wells. Percentage inhibition was calculated relative to the Minimum Signal control and Maximum Signal control wells. IC50 values were derived by four parameter curve fitting using the Robust method.

VHL Elongin B/C complex = molecular target: T2, VHL Elongin B/C complex (Homo sapiens, UniProt P40337); assay: Fluorescence Polarization (FP) VHL Binding Assay; settings: fluorescence polarization tracer competition; geometric mean where more than one measurement
T2 construct: amino acids E55-D213 of human VHL with N-terminal His6 tag; His6 (N); TEV-protease cleavage site (N); made in house; host or cells: E. coli
Procedure: The binding of test compounds to the VHL Elongin B/C complex was measured using a fluorescence polarization tracer competition assay. The VHL/Elongin B/C protein complex used in the assay was generated as follows. The coding region for amino acids E55-D213 of human VHL with N-terminal His6 tag with a TEV-protease cleavage site was co-expressed with Elongin B (residues M1-Q118) and Elongin C (Residues M17-C112) in E. coli. The VHL/Elongin B/C complex was purified using an affinity nickel column, anion exchange HiTrap QP HP column chromatography, and gel filtration using a Superdex 75 26/60 column. The purified VHL/Elongin B/C complex was dialyzed into formulation buffer: 20 mM Bis-Tris pH7.0, 150 mM NaCl, 1 mM DTT. A VHL fluorescence polarization probe consisted of a VHL ligand coupled to carboxytetramethylrhodamine (TAMRA); (2S,4R)—N-(2-(2-(3′,6′-bis(dimethylamino)-3-oxo-3H-spiro[isobenzofuran-1,9′-xanthene]-5-carboxamido)ethoxy)-4-(4-methylthiazol-5-yl)benzyl)-4-hydroxy-1-((R)-3-methyl-2-(3-methylisoxazol-5-yl)butanoyl)pyrrolidine-2-carboxamide. […] DMSO was dispensed into wells designated for “VHL control” (without compound) wells. The “Assay Buffer” consisted of 50 mM Tris pH 8.0, 120 mM NaCl, 0.005% Nonidet P-40, and 1% DMSO (v/v). Assay Buffer containing 5.28 μM VHL Elongin B/C complex was prepared and 5 μl dispensed using a BioRapTR (Beckman Coulter) into each well of the assay plate. Assay Buffer was also dispensed into “no VHL control” wells using the same method. A “pre-assay” fluorescence measurement was made using an Infinite® M1000 (Tecan) plate reader (Excitation 530 nm, Emission 574 nm, Bandwidth 10 nm). Assay Buffer containing 3.34 nM of the VHL FP probe was prepared in Assay Buffer and 5 μl dispensed into each well of the assay plate using a BioRapTR (Beckman Coulter). The final VHL/Elongin B/C protein concentration is 2.64 nM and the final probe concentration is 1.67 nM. Assay plates were briefly centrifuged and incubated for 1 hour at room temperature. “Post-assay” fluorescence polarization measurements were made as described for the “pre-assay” fluorescence measurement. Fluorescence polarization was calculated for each sample; taking into account the “pre-assay” fluorescence measurements and subtracting the fluorescence signal of the compound/VHL only (“pre-assay”) measurements from the “post-assay” fluorescence polarization measurements, for each plane of polarization. The data were analyzed using Genedata Screener software and normalized to the “no VHL control” and “VHL control” (without compound). IC50 values were calculated using a four parameter curve fit (Robust method).

VHL [2] = molecular target: T1, VHL; assay: VHL HEK-293 BRET Assay (VHL NanoBRET Target Engagement Assay); type: cell-based; settings: for IC50: HEK 293 RT VHL-NanoLuc stable cells, 1 uM tracer, 2 hours, geometric mean where more than one measurement, read-out: VHL binding in cells (HEK293 nanoBRET); for Ratio cell permeability shift: ratio not defined
Procedure: as §1, §2, §3

T2 sequence (P40337 55-213): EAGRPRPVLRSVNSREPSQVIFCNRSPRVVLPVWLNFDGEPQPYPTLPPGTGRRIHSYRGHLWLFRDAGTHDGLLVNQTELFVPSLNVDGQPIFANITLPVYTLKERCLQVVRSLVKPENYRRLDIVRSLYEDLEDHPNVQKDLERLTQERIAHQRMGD
T2 sequence (Q15370 whole entry partner, the tested form may be a part): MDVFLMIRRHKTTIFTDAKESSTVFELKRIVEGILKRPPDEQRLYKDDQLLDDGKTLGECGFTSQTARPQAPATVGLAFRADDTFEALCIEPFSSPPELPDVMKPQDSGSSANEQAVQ
T2 sequence (Q15369 17-112 partner limits assumed): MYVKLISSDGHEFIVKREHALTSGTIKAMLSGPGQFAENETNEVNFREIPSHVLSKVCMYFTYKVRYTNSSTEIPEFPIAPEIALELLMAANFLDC
T1 sequence (P40337 whole entry): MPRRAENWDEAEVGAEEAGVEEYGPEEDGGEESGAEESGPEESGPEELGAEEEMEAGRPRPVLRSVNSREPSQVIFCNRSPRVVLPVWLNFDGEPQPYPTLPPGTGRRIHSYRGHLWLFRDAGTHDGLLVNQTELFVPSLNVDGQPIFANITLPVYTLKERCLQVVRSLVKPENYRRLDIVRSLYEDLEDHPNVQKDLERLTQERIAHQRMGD

EC50 (VHL [1]) | IC50 (VHL Elongin B/C complex) | IC50 (VHL [2]) | Ratio cell permeability shift (VHL [2]) | SMILES
 | 80 nM | 20700 nM | 264.37 | CC(=O)NCCOCc1cn([C@H](C(=O)N2C[C@H](O)C[C@H]2C(=O)N[C@H](Cc2ccc(-c3ccccc3)cc2)C(N)=O)C(C)(C)C)nn1 [Example S14, (2S,4R)—N—((R)-3-([1,1′-biphenyl]-4-yl)-1-amino-1-oxopropan-2-yl)-1-((S)-2-(4-((2-acetamidoethoxy)methyl)-1H-1,2,3-triazol-1-yl)-3,3-dimethylbutanoyl)-4-hydroxypyrrolidine-2-carboxamide]
20 nM | 20 nM | 20 nM | 0.88 | Cc1ncsc1-c1ccc(CNC(=O)[C@@H]2C[C@@H](O)CN2C(=O)[C@@H](n2cc(Cc3ccccc3)nn2)C(C)(C)C)cc1 [Example S27, (2S,4R)-1-((S)-2-(4-benzyl-1H-1,2,3-triazol-1-yl)-3,3-dimethylbutanoyl)-4-hydroxy-N-(4-(4-methylthiazol-5-yl)benzyl)pyrrolidine-2-carboxamide]
30 nM |  | 30 nM | 1.03 | CC(C)(C)[C@@H](C(=O)N1C[C@H](O)C[C@H]1C(=O)NCc1ccc(-c2ccccc2F)cc1)n1cc(C2CC2)nn1 [Example S43, (2S,4R)-1-((S)-2-(4-cyclopropyl-1H-1,2,3-triazol-1-yl)-3,3-dimethylbutanoyl)-N-((2′-fluoro-[1,1′-biphenyl]-4-yl)methyl)-4-hydroxypyrrolidine-2-carboxamide]
< 5 nM |  | < 5 nM |  | Cc1ncsc1-c1ccc2c(c1)CCCC[C@H]2NC(=O)[C@@H]1C[C@@H](O)CN1C(=O)[C@@H](n1cc(C2CC2)nn1)C(C)(C)C [Example S44, (2S,4R)-1-((S)-2-(4-cyclopropyl-1H-1,2,3-triazol-1-yl)-3,3-dimethylbutanoyl)-4-hydroxy-N—((R)-2-(4-methylthiazol-5-yl)-6,7,8,9-tetrahydro-5H-benzo[7]annulen-5-yl)pyrrolidine-2-carboxamide]

Further lines, the compound ahead of its results:

SMILES | EC50 (VHL [1]) | IC50 (VHL Elongin B/C complex) | IC50 (VHL [2]) | Ratio cell permeability shift (VHL [2])
CC(C)(C)[C@@H](C(=O)N1C[C@H](O)C[C@H]1C(=O)N[C@H](Cc1ccc(-c2ccccc2)cc1)C(N)=O)n1cc(C2CC2)nn1 [Example S3, (2S,4R)—N—((R)-3-([1,1′-biphenyl]-4-yl)-1-amino-1-oxopropan-2-yl)-1-((S)-2-(4-cyclopropyl-JH-1,2,3-triazol-1-yl)-3,3-dimethylbutanoyl)-4-hydroxypyrrolidine-2-carboxamide] | 140 nM | 150 nM | 150 nM | 0.97
Cc1ncsc1-c1ccc(CNC(=O)[C@@H]2C[C@@H](O)CN2C(=O)[C@@H](n2cc(C3CC3)nn2)C(C)(C)C)cc1 [Example S24, (2S,4R)-1-((S)-2-(4-cyclopropyl-1H-1,2,3-triazol-1-yl)-3,3-dimethylbutanoyl)-4-hydroxy-N-(4-(4-methylthiazol-5-yl)benzyl)pyrrolidine-2-carboxamide] | 10 nM | 10 nM | 10 nM | 1.22
Cc1ncsc1-c1ccc2c(c1)CCCC[C@@H]2NC(=O)[C@@H]1C[C@@H](O)CN1C(=O)[C@@H](n1cc(C2CC2)nn1)C(C)(C)C [Example S45, (2S,4R)-1-((S)-2-(4-cyclopropyl-1H-1,2,3-triazol-1-yl)-3,3-dimethylbutanoyl)-4-hydroxy-N—((S)-2-(4-methylthiazol-5-yl)-6,7,8,9-tetrahydro-5H-benzo[7]annulen-5-yl)pyrrolidine-2-carboxamide] | 230 nM |  | 200 nM | 0.86
C[C@H](NC(=O)[C@@H]1C[C@@H](O)CN1C(=O)[C@@H](n1cc(C2CC2)nn1)C(C)(C)C)c1ccc(-c2ccccc2Cl)cc1 [Example S46, (2S,4R)—N—((S)-1-(2′-chloro-[1,1′-biphenyl]-4-yl)ethyl)-1-((S)-2-(4-cyclopropyl-1H-1,2,3-triazol-1-yl)-3,3-dimethylbutanoyl)-4-hydroxypyrrolidine-2-carboxamide] | 10 nM |  | 10 nM | 0.84

— patent publication US20230391766A1, “1-(2-(4-CYCLOPROPYL-1H-1,2,3-TRIAZOL-1-YL)ACETYL)-4-HYDROXY-N-(BENZYL)PYRROLIDIN E-2-CARBOXAMIDE DERIVATIVES AS VHL INHIBITORS FOR THE TREATMENT OF ANEMIA AND CANCER” (Genentech, Inc., priority 2020, published 2023)
